For experiment [1], the system named is Beet Armyworm (Spodoptera exigua, LAPHEG). As to the kind of experiment: Bioassay on Beet Armyworm (BAW), 128-well diet tray assay. Type of experiment: in vivo. The method, then: (§1) Certain molecules disclosed in this document were tested against BAW and CL using procedures described in the following examples. In the reporting of the results, the “BAW & CL Rating Table” was used (See Table Section).
Bioassays on BAW were conducted using a 128-well diet tray assay. One to five second instar BAW larvae were placed in each well (3 mL) of the diet tray that had been previously filled with approximately 1.5 mL of artificial diet to which 50 μg/cm^2 of the test molecule (dissolved in 50 μL of 90:10 acetone-water mixture) had been applied (to each of eight wells) and then allowed to dry. Trays were covered with a clear self-adhesive cover, vented to allow gas exchange, and held at 25° C., 14:10 light-dark for five to seven days. Percent mortality was recorded for the larvae in each well; activity in the eight wells was then averaged. The results are indicated in the table entitled “Table ABC: Biological Results” (See Table Section).

Experiment [2] concerns Cabbage Looper (Trichoplusia ni, TRIPNI). The experiment is described as follows: Bioassay on Cabbage Looper (CL), 128-well diet tray assay. The note with it: for pest or weed control at 50 µg/cm2: Trichoplusia ni. Type of experiment: in vivo. As to the method: as §1
Bioassays on CL were conducted using a 128-well diet tray assay. one to five second instar CL larvae were placed in each well (3 mL) of the diet tray that had been previously filled with 1 mL of artificial diet to which 50 μg/cm^2 of the test molecule (dissolved in 50 μL of 90:10 acetone-water mixture) had been applied (to each of eight wells) and then allowed to dry. Trays were covered with a clear self-adhesive cover, vented to allow gas exchange, and held at 25° C., 14:10 light-dark for five to seven days. Percent mortality was recorded for the larvae in each well; activity in the eight wells was then averaged. The results are indicated in the table entitled “Table ABC: Biological Results” (See Table Section).

Where [3] appears, read: Species BAW (Beet Armyworm), read-out: BAW (Biological Results, rating).
[4] abbreviates: Species CL (Cabbage Looper), read-out: CL (Biological Results, rating).
The mark [5] stands for this setting: Beet Armyworm, 128-well diet tray assay, read-out: BAW rating.
Setting [6] is: Cabbage Looper, 128-well diet tray assay, read-out: CL rating.

Read-outs that look alike come from different tables or passages of the source.

Take `N#Cc1ccc(NC(=O)c2cc(NC(=O)[C@H]3[C@H](c4cc(Cl)cc(Cl)c4)C3(Cl)Cl)ccc2Cl)nc1N` (relative stereo) [F292, N-(6-Amino-5-cyanopyridin-2-yl)-2-chloro-5-(trans-2,2-dichloro-3-(3,5-dichlorophenyl)cyclopropane-1-carboxamido)benzamide]: the pest or weed control at 50 µg/cm2 in experiment [1] (setting [3]) and in experiment [2] (setting [4]) was 50 to 100% throughout. On to `O=C(Nc1ccc(F)cc1)c1cc(NC(=O)[C@H]2[C@H](c3cc(Cl)cc(Cl)c3)C2(Cl)Cl)cc[n+]1[O-]` (relative stereo) [F141, trans-4-(2,2-Dichloro-3-(3,5-dichlorophenyl)cyclopropane-1-carboxamido)-2-((4-fluorophenyl)carbamoyl)pyridine 1-oxide], for which the pest or weed control at 50 µg/cm2 in experiment [1] (setting [3]) and in experiment [2] (setting [4]) was 50 to 100% each time. As for `Cc1cc(N)ccc1NC(=O)c1cc(NC(=O)[C@H]2[C@H](c3ccc(Cl)c(Br)c3)C2(Cl)Cl)ccc1Cl` (relative stereo) [F336, N-(4-Amino-2-methylphenyl)-5-(trans-3-(3-bromo-4-chlorophenyl)-2,2-dichlorocyclopropane-1-carboxamido)-2-chlorobenzamide], the pest or weed control at 50 µg/cm2 in experiment [1] (setting [3]) and in experiment [2] (setting [4]) was 50 to 100% throughout. Turning to `N#Cc1ccc(NC(=O)c2cc(NC(=O)[C@H]3[C@H](c4cc(Cl)c(Cl)c(Cl)c4)C3(Cl)Cl)ccc2Cl)c(F)c1` (relative stereo) [F104, trans-2-Chloro-N-(4-cyano-2-fluorophenyl)-5-(2,2-dichloro-3-(3,4,5-trichlorophenyl)cyclopropane-1-carboxamido)benzamide], the pest or weed control at 50 µg/cm2 in experiment [1] (setting [3]) and in experiment [2] (setting [4]) was 50 to 100% throughout.

For the compound `CCc1cc(C(F)(C(F)(F)F)C(F)(F)C(F)(F)F)cc(CC)c1NC(=O)c1cc(NC(=O)[C@H]2[C@H](c3cc(Cl)cc(Cl)c3)C2(Cl)Cl)ccc1Cl` (relative stereo) [PF59, trans-2-Chloro-5-(2,2-dichloro-3-(3,5-dichlorophenyl)cyclopropane-1-carboxamido)-N-(2,6-diethyl-4-(perfluorobutan-2-yl)phenyl)benzamide], the pest or weed control at 50 µg/cm2 in experiment [1] (setting [5]) fell in the range of 0 to 50%. `CC(C)(C)OC(=O)N(C(=O)OC(C)(C)C)c1c(F)cc(F)cc1NC(=O)c1cc(NC(=O)[C@H]2[C@H](c3cc(Cl)cc(Cl)c3)C2(Cl)Cl)ccc1Cl` [F521, tert-Butyl-N-((tert-butoxy)carbonyl)-N-(2-(2-chloro-5-((1R,3R)-2,2-dichloro-3-(3,5-dichlorophenyl)cyclopropane-1-carboxamido)benzamido)-4,6-difluorophenyl)carbamate]: in experiment [2] (setting [6]), the pest or weed control at 50 µg/cm2 is 0 to 50%. Regarding `CC(C)(C)OC(=O)N1CCc2cc(NC(=O)c3cc(NC(=O)[C@H]4[C@H](c5cc(Cl)cc(Cl)c5)C4(Cl)Cl)ccc3Cl)ccc21` (relative stereo) [F509, tert-Butyl 5-(2-chloro-5-(trans)-(2,2-dichloro-3-(3,5-dichlorophenyl)cyclopropane-1-carboxamido)benzamido)indoline-1-carboxylate], the pest or weed control at 50 µg/cm2 in experiment [1] (setting [5]) lay in the range of 0 to 50%.

In the case of `CNc1ccc(NC(=O)c2cc(NC(=O)[C@H]3[C@H](c4cc(Cl)cc(Cl)c4)C3(Cl)Cl)c(Cl)cc2Cl)cc1` (relative stereo) [F256, trans-2,4-dichloro-5-(2,2-dichloro-3-(3,5-dichlorophenyl)cyclopropane-1-carboxamido)-N-(4-(methylamino)phenyl)benzamide], the pest or weed control at 50 µg/cm2 in experiment [1] (setting [3]) lay within 0 to 50%. Take `CCc1cc(C(F)(C(F)(F)F)C(F)(F)F)cc(CC)c1NC(=O)c1cc(NC(=O)[C@H]2[C@H](c3cc(Cl)cc(Cl)c3)C2(Cl)Cl)ccc1Cl` (relative stereo) [PF61, trans-2-Chloro-5-(2,2-dichloro-3-(3,5-dichlorophenyl)cyclopropane-1-carboxamido)-N-(2,6-diethyl-4-(perfluoropropan-2-yl)phenyl)benzamide]: the pest or weed control at 50 µg/cm2 in experiment [1] (setting [5]) fell in the range of 0 to 50%. `CC(C)(C)OC(=O)N(C(=O)OC(C)(C)C)c1c(F)ccc(NC(=O)c2cc(NC(=O)[C@H]3[C@H](c4cc(Cl)c(Cl)c(Cl)c4)C3(Cl)Cl)ccc2Cl)c1F` [F501, tert-Butyl-N-((tert-butoxy)carbonyl)-N-(3-(2-chloro-5-((1R,3R)-2,2-dichloro-3-(3,4,5-trichlorophenyl)cyclopropane-1-carboxamido)benzamido)-2,6-difluorophenyl)carbamate]: the pest or weed control at 50 µg/cm2 in experiment [1] (setting [5]) lay within 0 to 50%.

As for `CC(C)(C)OC(=O)N(C(=O)OC(C)(C)C)c1c(F)ccc(NC(=O)c2cc(NC(=O)C3C(c4cc(Cl)cc(Br)c4)C3(Cl)Cl)ccc2Cl)c1F` (stereo not drawn) [F514, tert-Butyl-N-((tert-butoxy)carbonyl)-N-(3-(5-(3-(3-bromo-5-chlorophenyl)-2,2-dichlorocyclopropane-1-carboxamido)-2-chlorobenzamido)-2,6-difluorophenyl)carbamate], the pest or weed control at 50 µg/cm2 in experiment [1] (setting [5]) fell in the range of 50 to 100%. Regarding `Cc1cc(N(C)C(=O)OC(C)(C)C)ccc1NC(=O)c1cc(NC(=O)[C@H]2[C@H](c3ccc(F)c(Cl)c3)C2(Cl)Cl)ccc1Cl` (relative stereo) [F219, trans-tert-Butyl-(4-(2-chloro-5-(2,2-dichloro-3-(3-chloro-4-fluorophenyl)cyclopropane-1-carboxamido)benzamido)-3-methylphenyl)(methyl)carbamate], the pest or weed control at 50 µg/cm2 in experiment [1] (setting [3]) lay in the range of 50 to 100%.

For the compound `C=Cc1cc(Cl)cc(C2C(C(=O)Nc3ccc(Cl)c(C(=O)Nc4ccc(F)c(N(C(=O)OC(C)(C)C)C(=O)OC(C)(C)C)c4F)c3)C2(Cl)Cl)c1` (stereo not drawn) [F523, tert-Butyl-N-((tert-butoxyl)carbonyl)-N-(3-(2-chloro-5-(2,2-dichloro-3-(3-chloro-5-vinylphenyl)cyclopropane-1-carboxamido)benzamido)-2,6-difluorophenyl)carbamate], the pest or weed control at 50 µg/cm2 in experiment [1] (setting [5]) was 0 to 50%.

`O=C(Nc1cc(Cl)c(Cl)c(Cl)c1)c1cc(NC(=O)C2C(c3cc(Cl)cc(Cl)c3)C2(Cl)Cl)ccc1Cl` (stereo not drawn) [PF119, 2-Chloro-5-(trans)-2,2-dichloro-3-(3,5-dichlorophenyl)cyclopropane-1-carboxamido)-N-(3,4,5-trichlorophenyl)benzamide]: in experiment [1] (setting [5]), the pest or weed control at 50 µg/cm2 lay within 50 to 100%. As for `CSc1nc(NC(=O)c2cc(NC(=O)[C@H]3[C@H](c4cc(Cl)cc(Cl)c4)C3(Cl)Cl)ccc2Cl)n[nH]1` (relative stereo) [F184, trans-2-Chloro-5-(2,2-dichloro-3-(3,5-dichlorophenyl)cyclopropane-1-carboxamido)-N-(5-(methylthio)-1H-1,2,4-triazol-3-yl)benzamide], the pest or weed control at 50 µg/cm2 in experiment [2] (setting [4]) is 50 to 100%.

As for `CC1(c2cc(Cl)cc(Cl)c2)C(C(=O)Nc2ccc(Cl)c(C(=O)Nc3ccc(F)cc3)c2)C1(Cl)Cl` (stereo not drawn) [F253, 2-Chloro-5-cis-2,2-dichloro-3-(3,5-dichlorophenyl)-3-methylcyclopropane-1-carboxamido)-N-(4-fluorophenyl)benzamide], the “CL (Biological Results, rating)” value in experiment [2] (Species CL (Cabbage Looper)) is reported as “A (50-100)”.

For the compound `Cc1cc(N(C)C(=O)OC(C)(C)C)ccc1N(C)C(=O)c1cc(NC(=O)C2C(c3cc(Cl)c(Cl)c(Cl)c3)C2(Cl)Cl)ccc1Cl` [F221, trans-tert-Butyl-(4-(2-chloro-5-((1R,3R)-2,2-dichloro-3-(3,4,5-trichlorophenyl)cyclopropane-1-carboxamido)-N-methylbenzamido)-3-methylphenyl)(methyl)carbamate], in experiment [1] (setting [3]), the pest or weed control at 50 µg/cm2 was 50 to 100%. For `CC(C)(C)OC(=O)N(C(=O)OC(C)(C)C)c1c(F)ccc(NC(=O)c2cc(NC(=O)[C@H]3[C@H](c4cc(Cl)cc(C#N)c4)C3(Cl)Cl)ccc2Cl)c1F` (relative stereo) [F515, trans-tert-Butyl-N-((tert-butoxy)carbonyl)-N-(3-(2-chloro-5-(2,2-dichloro-3-(3-chloro-5-cyanophenyl)cyclopropane-1-carboxamido)benzamido)-2,6-difluorophenyl)carbamate], in experiment [2] (setting [6]), the pest or weed control at 50 µg/cm2 is 50 to 100%.

As to `CC(C)(C)OC(=O)N(C(=O)OC(C)(C)C)c1c(F)ccc(NC(=O)c2cc(NC(=O)[C@H]3[C@H](c4cc(Cl)cc(Cl)c4)C3(Cl)Cl)ccc2Cl)c1F` [F499, tert-Butyl-N-((tert-butoxy)carbonyl)-N-(3-(2-chloro-5-((1R,3R)-2,2-dichloro-3-(3,5-dichlorophenyl)cyclopropane-1-carboxamido)benzamido)-2,6-difluorophenyl)carbamate], in experiment [1] (setting [5]), the pest or weed control at 50 µg/cm2 lay in the range of 50 to 100%.

`CC(C)(C)OC(=O)N(C(=O)OC(C)(C)C)c1c(F)ccc(NC(=O)c2cc(NC(=O)[C@H]3[C@H](c4cc(Cl)cc(Cl)c4)C3(Cl)Cl)ccc2Cl)c1F` (relative stereo) [F468, trans-tert-Butyl-N-((tert-butoxy)carbonyl)-N-(3-(2-chloro-5-(2,2-dichloro-3-(3,5-dichlorophenyl)cyclopropane-1-carboxamido)benzamido)-2,6-difluorophenyl)carbamate]: the pest or weed control at 50 µg/cm2 in experiment [1] (setting [5]) is 0 to 50%.

Values taken from patent publication US10219516B2, “Molecules having pesticidal utility, and intermediates, compositions, and processes, related thereto” (priority 2015, dated 2019).
